Experimental data from ChEMBL document CHEMBL2440076, “New triarylpyrazoles as broad-spectrum anticancer agents: design, synthesis, and biological evaluation” (Eur J Med Chem, 2013).

Tests used:
CCRF-CEM = assay: Growth inhibition of human CCRF-CEM cells assessed as cell growth at 10 uM after 48 hrs by sulforhodamine B assay; assay type: functional; details: read-out: Activity
NCI-H226 [1] = assay: Growth inhibition of human NCI-H226 cells after 48 hrs by sulforhodamine B assay; assay type: functional; details: NCI-H226, 48 h; for CC50: read-out: LC50 (the source's name)
HOP-92 = assay: Growth inhibition of human HOP92 cells after 48 hrs by sulforhodamine B assay; assay type: functional, cell-based; details: HOP-92, 48 h
SK-OV-3 = assay: Growth inhibition of human SKOV3 cells after 48 hrs by sulforhodamine B assay; assay type: functional; details: SK-OV-3, 48 h; for CC50: read-out: LC50 (the source's name)
OVCAR-3 [2] = assay: Growth inhibition of human OVCAR3 cells assessed as cell growth at 10 uM after 48 hrs by sulforhodamine B assay; assay type: functional; details: OVCAR-3, 48 h, read-out: Activity
SF-539 = assay: Growth inhibition of human SF539 cells assessed as cell growth at 10 uM after 48 hrs by sulforhodamine B assay; assay type: functional; details: SF-539, 48 h, read-out: Activity
NCI-H322M = assay: Growth inhibition of human NCI-H322M cells after 48 hrs by sulforhodamine B assay; assay type: functional; details: for CC50: read-out: LC50 (the source's name)
DU-145 = assay: Growth inhibition of human DU145 cells after 48 hrs by sulforhodamine B assay; assay type: functional; details: DU-145, 48 h
NCI-H226 [3] = assay: Growth inhibition of human NCI-H226 cells assessed as cell growth at 10 uM after 48 hrs by sulforhodamine B assay; assay type: functional; details: NCI-H226, 48 h, read-out: Activity
UACC-257 = assay: Growth inhibition of human UACC257 cells assessed as cell growth at 10 uM after 48 hrs by sulforhodamine B assay; assay type: functional; details: UACC-257, 48 h, read-out: Activity
NCI-H522 = assay: Growth inhibition of human NCI-H522 cells assessed as cell growth at 10 uM after 48 hrs by sulforhodamine B assay; assay type: functional; details: NCI-H522, 48 h, read-out: Activity
NCI-H460 [4] = assay: Growth inhibition of human NCI-H460 cells after 48 hrs by sulforhodamine B assay; assay type: functional; details: NCI-H460, 48 h
[5] = Growth inhibition of human NCI-ADR-RES cells assessed as cell growth at 10 uM after 48 hrs by sulforhodamine B assay; assay type: functional; details: read-out: Activity
HCT-116 [6] = assay: Growth inhibition of human HCT116 cells assessed as cell growth at 10 uM after 48 hrs by sulforhodamine B assay; assay type: functional; details: HCT-116, 48 h, read-out: Activity
SF-268 = assay: Growth inhibition of human SF268 cells after 48 hrs by sulforhodamine B assay; assay type: functional; details: SF-268, 48 h; for CC50: read-out: LC50 (the source's name)
PC-3 = assay: Growth inhibition of human PC3 cells after 48 hrs by sulforhodamine B assay; assay type: functional, cell-based; details: PC-3, 48 h; for CC50: read-out: LC50 (the source's name)
HCT-116 [7] = assay: Growth inhibition of human HCT116 cells after 48 hrs by sulforhodamine B assay; assay type: functional; details: HCT-116, 48 h; for CC50: read-out: LC50 (the source's name)
HL-60(TB) = assay: Growth inhibition of human HL-60(TB) cells assessed as cell growth at 10 uM after 48 hrs by sulforhodamine B assay; assay type: functional; details: HL-60, 48 h, read-out: Activity
SN12C = assay: Growth inhibition of human SN12C cells after 48 hrs by sulforhodamine B assay; assay type: functional; details: for CC50: read-out: LC50 (the source's name)
COLO 205 = assay: Growth inhibition of human COLO205 cells assessed as cell growth at 10 uM after 48 hrs by sulforhodamine B assay; assay type: functional; details: COLO 205, 48 h, read-out: Activity
Malme-3M = assay: Growth inhibition of human MALME-3M cells after 48 hrs by sulforhodamine B assay; assay type: functional
MOLT-4 [8] = assay: Growth inhibition of human MOLT4 cells after 48 hrs by sulforhodamine B assay; assay type: functional; details: MOLT-4, 48 h; for CC50: read-out: LC50 (the source's name)
A549 = assay: Growth inhibition of human A549/ATCC cells after 48 hrs by sulforhodamine B assay; assay type: functional; details: A549, 48 h
HCT-15 = assay: Growth inhibition of human HCT15 cells assessed as cell growth at 10 uM after 48 hrs by sulforhodamine B assay; assay type: functional; details: HCT-15, 48 h, read-out: Activity
LOX IMVI = assay: Growth inhibition of human LOXIMVI cells assessed as cell growth at 10 uM after 48 hrs by sulforhodamine B assay; assay type: functional; details: read-out: Activity
OVCAR-3 [9] = assay: Growth inhibition of human OVCAR3 cells after 48 hrs by sulforhodamine B assay; assay type: functional, cell-based; details: OVCAR-3, 48 h; for CC50: read-out: LC50 (the source's name)
MCF7 = assay: Growth inhibition of human MCF7 cells assessed as cell growth at 10 uM after 48 hrs by sulforhodamine B assay; assay type: functional; details: MCF7, 48 h, read-out: Activity
[10] = Growth inhibition of human HCC2998 cells assessed as cell growth at 10 uM after 48 hrs by sulforhodamine B assay; assay type: functional; details: HCC 2998, 48 h, read-out: Activity
MOLT-4 [11] = assay: Growth inhibition of human MOLT4 cells assessed as cell growth at 10 uM after 48 hrs by sulforhodamine B assay; assay type: functional; details: MOLT-4, 48 h, read-out: Activity
[12] = Growth inhibition of human NCI-ADR-RES cells after 48 hrs by sulforhodamine B assay; assay type: functional; details: for CC50: read-out: LC50 (the source's name)
IGROV-1 = assay: Growth inhibition of human IGROV1 cells assessed as cell growth at 10 uM after 48 hrs by sulforhodamine B assay; assay type: functional; details: IGROV-1, 48 h, read-out: Activity
[13] = Growth inhibition of human Hs 578T cells after 48 hrs by sulforhodamine B assay; assay type: functional; details: for CC50: read-out: LC50 (the source's name)
NCI-H460 [14] = assay: Growth inhibition of human NCI-H460 cells assessed as cell growth at 10 uM after 48 hrs by sulforhodamine B assay; assay type: functional; details: NCI-H460, 48 h, read-out: Activity
RXF 393 = assay: Growth inhibition of human RXF393 cells assessed as cell growth at 10 uM after 48 hrs by sulforhodamine B assay; assay type: functional; details: RXF 393, 48 h, read-out: Activity

SMILES: COc1cc(-c2nn(-c3cccc(NC(=O)c4cccc(C(F)(F)F)c4)c3)cc2-c2ccncc2)ccc1Cl
- growth at 10 µM (CCRF-CEM): 3.1%
- GI50 (NCI-H226 [1]): 1660 nM
- TGI (NCI-H226 [1]): 27 µM
- CC50 (NCI-H226 [1]): > 50 µM
- GI50 (HOP-92): 555 nM
- IC50 (HOP-92): 560 nM
- LC50 (HOP-92): > 50 µM
- TGI (HOP-92): 3120 nM
- GI50 (SK-OV-3): 2290 nM
- TGI (SK-OV-3): > 50000 nM
- CC50 (SK-OV-3): > 50 µM
- growth at 10 µM (OVCAR-3 [2]): -25.6%
- growth at 10 µM (SF-539): -48.8%
- GI50 (NCI-H322M): 10.8 µM
- TGI (NCI-H322M): > 50000 nM
- CC50 (NCI-H322M): > 50 µM
- GI50 (DU-145): 1760 nM
- LC50 (DU-145): > 50 µM
- TGI (DU-145): 32.1 µM
- growth at 10 µM (NCI-H226 [3]): 36.2%
- growth at 10 µM (UACC-257): 34.5%
- growth at 10 µM (NCI-H522): -42.3%
- GI50 (NCI-H460 [4]): 1450 nM
- LC50 (NCI-H460 [4]): > 50 µM
- TGI (NCI-H460 [4]): 9.27 µM
- growth at 10 µM [5]: 2.75%
- growth at 10 µM (HCT-116 [6]): 8.15%
- GI50 (SF-268): 2130 nM
- TGI (SF-268): > 50000 nM
- CC50 (SF-268): > 50 µM
- GI50 (PC-3): 1230 nM
- IC50 (PC-3): 1230 nM
- TGI (PC-3): > 50000 nM
- CC50 (PC-3): > 50 µM
- GI50 (HCT-116 [7]): 1670 nM
- TGI (HCT-116 [7]): > 50000 nM
- CC50 (HCT-116 [7]): > 50 µM
- growth at 10 µM (HL-60(TB)): 1.93%
- GI50 (SN12C): 3310 nM
- TGI (SN12C): > 50 µM
- CC50 (SN12C): > 50 µM
- growth at 10 µM (COLO 205): 7.11%
- GI50 (Malme-3M): 1990 nM
- LC50 (concentration killing 50% of starting cells) (Malme-3M): > 50 µM
- TGI (Malme-3M): > 50000 nM
- GI50 (MOLT-4 [8]): 2010 nM
- TGI (MOLT-4 [8]): > 50 µM
- CC50 (MOLT-4 [8]): > 50 µM
- GI50 (A549): 1870 nM
- LC50 (concentration killing 50% of starting cells) (A549): > 50 µM
- TGI (A549): > 50000 nM
- growth at 10 µM (HCT-15): 12.8%
- growth at 10 µM (LOX IMVI): 11.4%
- GI50 (OVCAR-3 [9]): 1200 nM
- IC50 (OVCAR-3 [9]): 1200 nM
- TGI (OVCAR-3 [9]): 2980 nM
- CC50 (OVCAR-3 [9]): > 50 µM
- growth at 10 µM (MCF7): 3.58%
- growth at 10 µM [10]: 0.91%
- growth at 10 µM (MOLT-4 [11]): 8.63%
- GI50 [12]: 1090 nM
- TGI [12]: 3.17 µM
- CC50 [12]: > 50 µM
- growth at 10 µM (IGROV-1): 34%
- GI50 [13]: 1070 nM
- TGI [13]: > 50 µM
- CC50 [13]: > 50 µM
- growth at 10 µM (NCI-H460 [14]): 4.83%
- growth at 10 µM (RXF 393): -42.8%

SMILES: COc1cc(-c2nn(-c3cccc(NC(=O)Nc4cc(C(F)(F)F)cc(C(F)(F)F)c4)c3)cc2-c2ccncc2)ccc1Cl
- growth at 10 µM (CCRF-CEM): -27.3%
- GI50 (NCI-H226 [1]): 1360 nM
- TGI (NCI-H226 [1]): 21.8 µM
- CC50 (NCI-H226 [1]): > 50 µM
- GI50 (HOP-92): 144 nM
- IC50 (HOP-92): 140 nM
- LC50 (HOP-92): 4.72 µM
- TGI (HOP-92): 1150 nM
- GI50 (SK-OV-3): 1090 nM
- TGI (SK-OV-3): 2570 nM
- CC50 (SK-OV-3): 15.4 µM
- growth at 10 µM (OVCAR-3 [2]): -57.9%
- growth at 10 µM (SF-539): -53.5%
- GI50 (NCI-H322M): 1.02 µM
- TGI (NCI-H322M): 3000 nM
- CC50 (NCI-H322M): 29.9 µM
- GI50 (DU-145): 1310 nM
- LC50 (DU-145): 21.1 µM
- TGI (DU-145): 5.04 µM
- growth at 10 µM (NCI-H226 [3]): 8.68%
- growth at 10 µM (UACC-257): -45.1%
- growth at 10 µM (NCI-H522): -34.4%
- GI50 (NCI-H460 [4]): 558 nM
- LC50 (NCI-H460 [4]): 16.3 µM
- TGI (NCI-H460 [4]): 1.87 µM
- growth at 10 µM [5]: 1.11%
- growth at 10 µM (HCT-116 [6]): -43.6%
- GI50 (SF-268): 978 nM
- TGI (SF-268): 2430 nM
- CC50 (SF-268): > 50 µM
- GI50 (PC-3): 250 nM
- IC50 (PC-3): 250 nM
- TGI (PC-3): 2070 nM
- CC50 (PC-3): > 50 µM
- GI50 (HCT-116 [7]): 643 nM
- TGI (HCT-116 [7]): 1760 nM
- CC50 (HCT-116 [7]): 4.83 µM
- growth at 10 µM (HL-60(TB)): -20.2%
- GI50 (SN12C): 932 nM
- TGI (SN12C): 3.32 µM
- CC50 (SN12C): > 50 µM
- growth at 10 µM (COLO 205): -98.7%
- GI50 (Malme-3M): 892 nM
- LC50 (concentration killing 50% of starting cells) (Malme-3M): 7.68 µM
- TGI (Malme-3M): 2170 nM
- GI50 (MOLT-4 [8]): 1080 nM
- TGI (MOLT-4 [8]): 4.48 µM
- CC50 (MOLT-4 [8]): > 50 µM
- GI50 (A549): 527 nM
- LC50 (concentration killing 50% of starting cells) (A549): 18 µM
- TGI (A549): 2130 nM
- growth at 10 µM (HCT-15): 2.59%
- growth at 10 µM (LOX IMVI): -91.3%
- GI50 (OVCAR-3 [9]): 411 nM
- IC50 (OVCAR-3 [9]): 410 nM
- TGI (OVCAR-3 [9]): 1230 nM
- CC50 (OVCAR-3 [9]): 3.39 µM
- growth at 10 µM (MCF7): 1.74%
- growth at 10 µM [10]: -10.8%
- growth at 10 µM (MOLT-4 [11]): -24.5%
- GI50 [12]: 1010 nM
- TGI [12]: 5.18 µM
- CC50 [12]: > 50 µM
- growth at 10 µM (IGROV-1): 19.9%
- GI50 [13]: 1040 nM
- TGI [13]: 3.68 µM
- CC50 [13]: > 50 µM
- growth at 10 µM (NCI-H460 [14]): -49.7%
- growth at 10 µM (RXF 393): -68.1%
